# Where a SMILES comes first, the peptide text is derived from it.
# Legend:
# [1] = Transmission electron microscope (negative staining) of peptide assemblies; conditions: for Morphology: TEM, negative staining with uranyl acetate, 120 kV; for morphology by TEM (in words): aqueous solution or hydrogel, negative staining
# Method: We used the negative staining technique to observe the morphologies formed by peptides. A micropipette was used to load 10 μL of sample solution to a carbon-coated copper grid, and we used a piece of filter paper to remove the excess solution. After rinsing the grid with the deionized water, we used uranyl acetate to stain the sample for 1 minute and then rinsed the grid with deionized water again.
# [2] = Peptide hydrogel formation, vial-inverting method; format: physicochemical; design: key to EXP / GELATION: 0: no hydrogel; 1: hydrogel; conditions: for State: ultrasonication, standing 48 h; for State / GELATION: vial-inverting method; for Concentration: concentration at which the state was recorded: lowest of 30, 60, 90, 120 mM that gave a gel, 120 mM for non-gelating peptides; for GELATION: 1 = hydrogel, 0 = no hydrogel
# How it was run: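 Tetrapeptides dissolved in ultrapure water at 30 mM, pH brought to 6.5–8.5 with 1 N NaOH stepwise with brief ultrasonication, then left 48 h. Gel defined as self-supporting and non-flowing on vial inversion; non-gelling peptides retested at 60, 90 and 120 mM.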
# [3] = 120 mM peptide (highest tested) in ultrapure water, pH 6.5-8.5 (1 N NaOH), precipitate, sol, suspension = no gel
# [4] = 60 mM peptide in ultrapure water, pH 6.5-8.5 (1 N NaOH), no gel at 30 mM
# [5] = 30 mM peptide in ultrapure water, pH adjusted to 6.5-8.5 with 1 N NaOH, concentration raised 30/60/90/120 mM until gelation
Compound,Morphology ([1]; line of the table gives 120 mM),"State [2, 3]",Concentration [2] [µM],GELATION ([2]; peptide concentration 120 mM),other results
O=C(CNC(=O)[C@@H]1CCCN1)N[C@@H](Cc1c[nH]c2ccccc12)C(=O)N[C@@H](Cc1c[nH]c2ccccc12)C(=O)O [PGWW] (H-PGWW-OH),aggregates,sol,120000,0,morphology by TEM (in words) [1]: aggregates with different sizes
C[C@H](NC(=O)[C@@H](N)Cc1c[nH]c2ccccc12)C(=O)N[C@@H](Cc1ccccc1)C(=O)N[C@@H](Cc1ccc(O)cc1)C(=O)O [WAFY] (H-WAFY-OH),–,–,60000,–,"Morphology ([1]; line of the table gives 60 mM): fibre; State [2, 4]: gel; GELATION ([2]; peptide concentration 60 mM): 1"
CC[C@H](C)[C@H](NC(=O)[C@H](Cc1ccccc1)NC(=O)[C@H](Cc1c[nH]c2ccccc12)NC(=O)[C@@H](N)CC(C)C)C(=O)O [LWFI] (H-LWFI-OH),aggregates,sol,120000,0,–
NCCCC[C@H](NC(=O)[C@@H](N)Cc1ccccc1)C(=O)N[C@@H](Cc1ccccc1)C(=O)N[C@@H](Cc1c[nH]c2ccccc12)C(=O)O [FKFW] (H-FKFW-OH),–,–,60000,–,"Morphology ([1]; line of the table gives 60 mM): fibre; State [2, 4]: gel; GELATION ([2]; peptide concentration 60 mM): 1"
CC(C)C[C@H](N)C(=O)N[C@H](C(=O)N[C@@H](Cc1ccccc1)C(=O)NCC(=O)O)C(C)C [LVFG] (H-LVFG-OH),–,–,60000,–,"Morphology ([1]; line of the table gives 60 mM): aggregates; State [2, 4]: gel; GELATION ([2]; peptide concentration 60 mM): 1"
C[C@@H](O)[C@H](NC(=O)[C@H](Cc1ccccc1)NC(=O)[C@H](Cc1c[nH]c2ccccc12)NC(=O)[C@@H](N)CS)C(=O)O [CWFT] (H-CWFT-OH),aggregates,suspension,120000,0,–
CC(C)C[C@H](N)C(=O)N[C@@H](Cc1c[nH]c2ccccc12)C(=O)N[C@@H](Cc1ccccc1)C(=O)N[C@@H](Cc1ccccc1)C(=O)O [LWFF] (H-LWFF-OH),–,–,30000,–,"Morphology ([1]; line of the table gives 30 mM): hybrid(sheet+fibre); State [2, 5]: gel; GELATION ([2]; peptide concentration 30 mM): 1"
CC(C)[C@H](NC(=O)[C@H](Cc1c[nH]c2ccccc12)NC(=O)[C@@H](N)CCCNC(=N)N)C(=O)N[C@@H](Cc1ccccc1)C(=O)O [RWVF] (H-RWVF-OH),aggregates,sol,120000,0,morphology by TEM (in words) [1]: aggregates with different sizes
N[C@@H](Cc1ccccc1)C(=O)N[C@@H](Cc1ccccc1)C(=O)N[C@@H](Cc1ccc(O)cc1)C(=O)N[C@@H](Cc1ccc(O)cc1)C(=O)O [FFYY] (H-FFYY-OH),–,–,30000,–,"Morphology ([1]; line of the table gives 30 mM): needle; State [2, 5]: gel; GELATION ([2]; peptide concentration 30 mM): 1"
CC[C@H](C)[C@H](N)C(=O)N[C@H](C(=O)N[C@@H](Cc1ccccc1)C(=O)N[C@@H](Cc1c[nH]c2ccccc12)C(=O)O)C(C)C [IVFW] (H-IVFW-OH),sphere,gel,120000,1,–
CC(C)C[C@H](NC(=O)[C@H](CC(C)C)NC(=O)[C@@H](N)CCCCN)C(=O)N[C@@H](Cc1ccccc1)C(=O)O [KLLF],–,–,30000,–,"Morphology ([1]; line of the table gives 30 mM): particle; State [2, 5]: gel; GELATION ([2]; peptide concentration 30 mM): 1"
CC[C@H](C)[C@H](N)C(=O)N[C@@H](Cc1c[nH]c2ccccc12)C(=O)N1CCC[C@H]1C(=O)N[C@@H](Cc1c[nH]c2ccccc12)C(=O)O [IWPW] (H-IWPW-OH),aggregates,precipitate,120000,0,–
CC(C)C[C@H](NC(=O)[C@H](CC(C)C)NC(=O)[C@@H](N)CC(C)C)C(=O)N[C@@H](Cc1ccc(O)cc1)C(=O)O [LLLY] (H-LLLY-OH),–,–,30000,–,"Morphology ([1]; line of the table gives 30 mM): hybrid(sphere+fibre); State [2, 5]: gel; GELATION ([2]; peptide concentration 30 mM): 1"
CSCC[C@H](NC(=O)[C@H](CC(N)=O)NC(=O)[C@@H](NC(=O)CN)C(C)C)C(=O)O [GVNM] (H-GVNM-OH),sphere,suspension,120000,0,–
C[C@@H](O)[C@H](N)C(=O)NCC(=O)N[C@@H](Cc1ccccc1)C(=O)N[C@@H](Cc1ccccc1)C(=O)O [TGFF] (H-TGFF-OH),aggregates,gel,120000,1,–
C[C@H](NC(=O)[C@H](Cc1ccc(O)cc1)NC(=O)[C@@H](N)Cc1ccccc1)C(=O)N[C@@H](Cc1ccc(O)cc1)C(=O)O [FYAY] (H-FYAY-OH),sheet,gel,120000,1,–
CSCC[C@H](N)C(=O)N[C@H](C(=O)N[C@@H](CCC(N)=O)C(=O)NCC(=O)O)C(C)C [MVQG] (H-MVQG-OH),aggregates,suspension,120000,0,–
CC[C@H](C)[C@H](NC(=O)[C@H](Cc1c[nH]c2ccccc12)NC(=O)[C@@H](N)C(C)C)C(=O)N[C@H](C(=O)O)[C@@H](C)O [VWIT] (H-VWIT-OH),aggregates,precipitate,120000,0,–
CC[C@H](C)[C@H](N)C(=O)N[C@@H](CC(C)C)C(=O)N[C@H](C(=O)N[C@H](C(=O)O)C(C)C)C(C)C [ILVV] (H-ILVV-OH),–,–,30000,–,"Morphology ([1]; line of the table gives 30 mM): aggregates; State [2, 5]: gel; GELATION ([2]; peptide concentration 30 mM): 1"
CC(C)C[C@H](NC(=O)[C@@H](N)C(C)C)C(=O)N[C@H](C(=O)N[C@H](C(=O)O)C(C)C)C(C)C [VLVV] (H-VLVV-OH),sheet,gel,120000,1,–
O=C(O)[C@H](Cc1c[nH]c2ccccc12)NC(=O)[C@H](Cc1ccc(O)cc1)NC(=O)[C@H](Cc1c[nH]c2ccccc12)NC(=O)[C@@H]1CCCN1 [PWYW] (H-PWYW-OH),aggregates,gel,120000,1,–
CC(C)C[C@H](NC(=O)[C@@H](N)Cc1c[nH]c2ccccc12)C(=O)N[C@H](C(=O)N[C@@H](Cc1c[nH]c2ccccc12)C(=O)O)C(C)C [WLVW] (H-WLVW-OH),–,–,90000,–,"Morphology ([1]; line of the table gives 90 mM): fibre; State ([2]; 90 mM peptide in ultrapure water, pH 6.5-8.5 (1 N NaOH), no gel at lower concentrations): gel; GELATION ([2]; peptide concentration 90 mM): 1"
CC(C)[C@H](NC(=O)[C@@H](N)CC(=O)O)C(=O)N[C@@H](Cc1ccccc1)C(=O)N[C@@H](Cc1c[nH]c2ccccc12)C(=O)O [DVFW] (H-DVFW-OH),–,–,30000,–,"Morphology ([1]; line of the table gives 30 mM): fibre; State [2, 5]: gel; GELATION ([2]; peptide concentration 30 mM): 1"
N[C@@H](CO)C(=O)N[C@@H](Cc1c[nH]c2ccccc12)C(=O)N[C@@H](Cc1ccc(O)cc1)C(=O)N[C@@H](Cc1ccccc1)C(=O)O [SWYF] (H-SWYF-OH),fibre,gel,120000,1,–
CC[C@H](C)[C@H](N)C(=O)N[C@@H](CCCNC(=N)N)C(=O)N[C@H](C(=O)N[C@@H](Cc1c[nH]c2ccccc12)C(=O)O)C(C)C [IRVW] (H-IRVW-OH),sphere,suspension,120000,0,–
CC[C@H](C)[C@H](NC(=O)[C@@H](NC(=O)[C@H](Cc1c[nH]cn1)NC(=O)[C@@H](N)CCC(N)=O)[C@@H](C)CC)C(=O)O [QHII] (H-QHII-OH),aggregates,sol,120000,0,–
CSCC[C@H](NC(=O)[C@H](CCSC)NC(=O)[C@H](Cc1ccccc1)NC(=O)[C@@H](N)C(C)C)C(=O)O [VFMM] (H-VFMM-OH),fibre,gel,120000,1,–
N[C@@H](CS)C(=O)N[C@@H](Cc1c[nH]c2ccccc12)C(=O)N[C@@H](Cc1c[nH]cn1)C(=O)N[C@@H](Cc1ccc(O)cc1)C(=O)O [CWHY] (H-CWHY-OH),aggregates,gel,120000,1,–
CC(C)[C@H](N)C(=O)N[C@H](C(=O)N[C@H](C(=O)N[C@H](C(=O)O)C(C)C)C(C)C)C(C)C [VVVV] (H-VVVV-OH),–,–,60000,–,"Morphology ([1]; line of the table gives 60 mM): sheet; State [2, 4]: gel; GELATION ([2]; peptide concentration 60 mM): 1"
CC(C)C[C@H](N)C(=O)N[C@@H](CCCNC(=N)N)C(=O)N[C@@H](Cc1ccccc1)C(=O)N[C@@H](Cc1c[nH]cn1)C(=O)O [LRFH] (H-LRFH-OH),particle,sol,120000,0,morphology by TEM (in words) [1]: aggregates with different sizes

# Source: paper PMC10313671, “Accelerating the prediction and discovery of peptide hydrogels with human-in-the-loop” (Nature Communications, 2023)
